Source: ChEMBL document CHEMBL1135954, “Opioid activity of 4-imidazolidinone positional analogues of Leu-Enkephalin” (Bioorg Med Chem Lett, 2002)
Peptide text beside a SMILES is read from it. * marks the point of attachment. X1 = CC(C)C[C@H]1C(=O)NCN1*

Assays:
[1] = molecular target: Kappa-type opioid receptor (Rattus norvegicus, UniProt P34975); assay: Binding affinity towards Opioid receptor kappa 1 was determined using U69,593 as the radioligand.
Mu-type opioid receptor = Mu-type opioid receptor (Rattus norvegicus, UniProt P33535)
Sequence of Mu-type opioid receptor (P33535 whole entry): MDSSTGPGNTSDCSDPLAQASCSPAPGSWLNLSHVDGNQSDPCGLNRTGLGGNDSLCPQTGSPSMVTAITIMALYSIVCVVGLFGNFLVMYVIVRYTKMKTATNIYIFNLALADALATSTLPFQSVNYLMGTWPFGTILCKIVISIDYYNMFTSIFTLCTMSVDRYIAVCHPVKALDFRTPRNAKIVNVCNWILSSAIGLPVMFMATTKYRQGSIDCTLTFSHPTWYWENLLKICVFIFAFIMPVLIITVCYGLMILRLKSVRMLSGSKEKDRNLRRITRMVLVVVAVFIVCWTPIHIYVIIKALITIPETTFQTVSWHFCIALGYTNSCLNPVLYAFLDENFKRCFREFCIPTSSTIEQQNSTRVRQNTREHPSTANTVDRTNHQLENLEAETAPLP

Sequence of Kappa-type opioid receptor (P34975 whole entry): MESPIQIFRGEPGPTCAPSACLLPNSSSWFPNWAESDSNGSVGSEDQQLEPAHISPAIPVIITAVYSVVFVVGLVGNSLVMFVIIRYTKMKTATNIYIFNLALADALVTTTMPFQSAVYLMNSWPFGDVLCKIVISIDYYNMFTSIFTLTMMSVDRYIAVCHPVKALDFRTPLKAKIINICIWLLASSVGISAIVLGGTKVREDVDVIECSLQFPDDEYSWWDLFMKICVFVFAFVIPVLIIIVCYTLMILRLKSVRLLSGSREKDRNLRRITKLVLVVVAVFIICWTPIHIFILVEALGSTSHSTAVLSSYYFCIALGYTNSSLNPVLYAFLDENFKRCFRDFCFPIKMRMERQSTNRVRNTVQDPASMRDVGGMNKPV

Structure (SMILES) | Ki [1] [nM] | Ki (Mu-type opioid receptor) [nM]
CC(C)C[C@@H](C(N)=O)N(C)C(=O)[C@H](Cc1ccccc1)NC(=O)CNC(=O)CNC(=O)[C@@H](N)Cc1ccc(O)cc1 | 2230 | 46
CC(C)C[C@H](NC(=O)[C@H](Cc1ccccc1)N1CN(C(=O)CNC(=O)[C@@H](N)Cc2ccc(O)cc2)CC1=O)C(N)=O | > 10000 | 236
CNC(=O)[C@H](CC(C)C)N(C)C(=O)[C@H](Cc1ccccc1)NC(=O)CNC(=O)CNC(=O)[C@@H](N)Cc1ccc(O)cc1 | 1690 | 28
CNC(=O)[C@H](CC(C)C)NC(=O)[C@H](Cc1ccccc1)NC(=O)CNC(=O)CNC(=O)[C@@H](N)Cc1ccc(O)cc1 | 1370 | 145
CC(C)C[C@@H](C(N)=O)N1CN(C(=O)CNC(=O)CNC(=O)[C@@H](N)Cc2ccc(O)cc2)[C@@H](Cc2ccccc2)C1=O | > 10000 | 2560
CC(C)C[C@H](NC(=O)[C@H](Cc1ccccc1)NC(=O)CN1CN(C(=O)[C@@H](N)Cc2ccc(O)cc2)CC1=O)C(N)=O | > 10000 | 92
CC(C)C[C@H](NC(=O)[C@H](Cc1ccccc1)NC(=O)CNC(=O)CN1CN[C@@H](Cc2ccc(O)cc2)C1=O)C(N)=O | > 10000 | 547
CC(C)C[C@H]1C(=O)NCN1C(=O)[C@H](Cc1ccccc1)NC(=O)CNC(=O)CNC(=O)[C@@H](N)Cc1ccc(O)cc1 (H-YGGF-X1) | 2890 | 4
